Read-outs that look alike come from different tables or passages of the source.
Legend:
memapsin 2 = memapsin 2 (Homo sapiens, UniProt P56817); assay: Inhibition of memapsin 2 beta-secretase activity (fluorogenic substrate FS-2); format: biochemical; conditions: memapsin 2, pH 4, 37° C., read-out: M2Ki
Procedure, shortened: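 Kinetic fluorogenic assay: hydrolysis of the MCA/DNP-labelled APP Swedish-variant peptide FS-2 monitored as fluorescence rise at 37° C, pH 4, after 20 min enzyme–compound preincubation. Relative rates fitted with a tight-binding inhibitor model.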

[1] = system: Aβ production in Chinese hamster ovary cells that over-express human APP695 with the London and Swedish mutations; assay: Cellular Aβ IC50 determination (Aβ40 sandwich ELISA); format: cell-based; conditions: Cricetulus griseus
Description: The potency of compounds against memapsin 2 activity was determined in a cellular assay of Aβ production. […] Chinese hamster ovary cells that over-express human APP695 with the London and Swedish mutations were seeded in multi-well plates at 10% confluency. Compounds are dissolved in DMSO to concentrations near 1 mM, and diluted into culture media to a final concentration near 4 μM (final 0.4% DMSO). […] Aliquots were removed and assayed for Aβ40 content using a sandwich ELISA (BioSource International). Amount of Aβ40 over the range of concentration of compounds, relative to control incubations, were fit to a 4-parameter IC50 model.

[2] = cellular Aβ production, read-out: IC50

Chain of memapsin 2 (P56817 46-501): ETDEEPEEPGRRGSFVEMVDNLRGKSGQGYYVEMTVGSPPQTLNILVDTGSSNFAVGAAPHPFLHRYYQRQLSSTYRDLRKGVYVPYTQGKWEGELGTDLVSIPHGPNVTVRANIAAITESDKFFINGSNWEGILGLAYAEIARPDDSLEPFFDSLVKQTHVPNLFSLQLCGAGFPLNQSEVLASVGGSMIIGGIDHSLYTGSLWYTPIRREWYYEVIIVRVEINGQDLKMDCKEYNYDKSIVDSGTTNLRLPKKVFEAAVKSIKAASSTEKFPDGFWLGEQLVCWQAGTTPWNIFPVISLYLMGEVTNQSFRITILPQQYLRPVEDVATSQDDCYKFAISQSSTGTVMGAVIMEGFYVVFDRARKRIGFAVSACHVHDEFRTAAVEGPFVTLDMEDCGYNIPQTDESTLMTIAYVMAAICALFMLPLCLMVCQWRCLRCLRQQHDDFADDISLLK

| SMILES | Ki (memapsin 2; 20 minutes pre-incubation) | IC50 [1, 2] | Ki (memapsin 2; fluorogenic substrate FS-2) | IC50 [1] |
| --- | --- | --- | --- | --- |
| Cc1csc(CN(C)C(=O)c2cc(C(=O)N[C@@H](Cc3ccccc3)[C@H](O)CNCc3cncc(C(C)(F)F)c3)cc(N(C)C)c2)n1 [Compound 253, N1-((2S,3R)-4-((5-(1,1-difluoroethyl)pyridin-3-yl)methylamino)-3-hydroxy-1-phenylbutan-2-yl)-5-(dimethylamino)-N3-methyl-N3-((4-methylthiazol-2-yl)methyl)isophthalamide] | – | < 1000 nM | < 300 nM | – |
| Cc1csc(CN(C)C(=O)c2cccc(C(=O)N[C@@H](Cc3ccccc3)[C@H](O)CNCc3cccc(C#N)c3)c2)n1 [Compound 137, N1-((2S,3R)-4-(3-cyanobenzylamino)-3-hydroxy-1-phenylbutan-2-yl)-N3-methyl-N3-((4-methylthiazol-2-yl)methyl)isophthalamide] | < 300 nM | < 1000 nM | – | – |
| C[C@@H](NC(=O)c1cc(C(=O)N[C@@H](Cc2ccccc2)[C@H](O)CNCc2cccc(C(=O)O)c2)cc(N(C)S(C)(=O)=O)c1)c1ccccc1 [Compound 113, 3-(((2R,3S)-2-hydroxy-3-(3-(N-methylmethylsulfonamido)-5-((R)-1-phenylethylcarbamoyl)benzamido)-4-phenylbutylamino)methyl)benzoic acid] | < 300 nM | < 1000 nM | – | – |
| Cc1csc(CN(C)C(=O)c2cccc(C(=O)N[C@@H](Cc3ccccc3)[C@H](O)CNCc3cc(OC(=O)N(C)C)cc(C(C)C)c3)c2)n1 [Compound 198, 3-(((2R,3S)-2-hydroxy-3-(3-(methyl((4-methylthiazol-2-yl)methyl)carbamoyl)benzamido)-4-phenylbutylamino)methyl)-5-isopropylphenyl dimethylcarbamate] | < 300 nM | – | – | < 1000 nM |
| COc1cccc(CNC[C@@H](O)[C@H](Cc2ccccc2)NC(=O)c2cc(C(=O)N(C)Cc3nc(C)cs3)cc(-n3ccnc3)c2)c1 [Compound 262, N1-((2S,3R)-3-hydroxy-4-(3-methoxybenzylamino)-1-phenylbutan-2-yl)-5-(1H-imidazol-1-yl)-N3-methyl-N3-((4-methylthiazol-2-yl)methyl)isophthalamide] | – | < 1000 nM | < 300 nM | – |
| Cc1csc(CN(C)C(=O)c2cccc(C(=O)N[C@@H](Cc3ccccc3)[C@H](O)CNCc3cc(-c4ccccc4)on3)c2)n1 [Compound 196, N1-((2S,3R)-3-hydroxy-1-phenyl-4-((5-phenylisoxazol-3-yl)methylamino)butan-2-yl)-N3-methyl-N3-((4-methylthiazol-2-yl)methyl)isophthalamide] | < 300 nM | < 1000 nM | – | – |
| COc1cccc(CNC[C@@H](O)[C@H](Cc2ccccc2)NC(=O)c2cc(C(=O)N(C)Cc3nc(C)cs3)cc(N3CCCC3)c2)c1 [Compound 179, N1-((2S,3R)-3-hydroxy-4-(3-methoxybenzylamino)-1-phenylbutan-2-yl)-N3-methyl-N3-((4-methylthiazol-2-yl)methyl)-5-(pyrrolidin-1-yl)isophthalamide] | < 300 nM | < 1000 nM | – | – |
| Cc1csc(CN(C)C(=O)c2cccc(C(=O)N[C@@H](Cc3ccccc3)[C@H](O)CNCc3cc(C(F)(F)F)cc(C(F)(F)F)c3)c2)n1 [Compound 27, N1-((2S,3R)-4-(3,5-bis(trifluoromethyl)benzylamino)-3-hydroxy-1-phenylbutan-2-yl)-N3-methyl-N3-((4-methylthiazol-2-yl)methyl)isophthalamide] | < 300 nM | < 1000 nM | – | – |
| COc1cccc(CNC[C@@H](O)[C@H](Cc2ccccc2)NC(=O)c2cccc(C(=O)N(C)Cc3ccc(C)o3)c2)c1 [Compound 18, N1-((2S,3R)-3-hydroxy-4-(3-methoxybenzylamino)-1-phenylbutan-2-yl)-N3-methyl-N3-((5-methylfuran-2-yl)methyl)isophthalamide] | 301 to 500 nM | < 1000 nM | – | – |
| Cc1csc(CN(C)C(=O)c2cc(C(=O)N[C@@H](Cc3ccccc3)[C@H](O)CNCc3cncc(C(C)C)c3)cc(-c3cnn(C)c3)c2)n1 [Compound 258, N1-((2S,3R)-3-hydroxy-4-((5-isopropylpyridin-3-yl)methylamino)-1-phenylbutan-2-yl)-N3-methyl-5-(1-methyl-1H-pyrazol-4-yl)-N3-((4-methylthiazol-2-yl)methyl)isophthalamide] | – | < 1000 nM | < 300 nM | – |

More lines, main results first:

| Ki (memapsin 2; 20 minutes pre-incubation) | IC50 [1, 2] | Ki (memapsin 2; fluorogenic substrate FS-2) | SMILES | IC50 [1] |
| --- | --- | --- | --- | --- |
| < 300 nM | < 1000 nM | – | C[C@@H](NC(=O)c1cc(C(=O)N[C@@H](Cc2ccccc2)[C@H](O)CNCc2cccc(C(C)(C)C)c2)cc(N(C)S(C)(=O)=O)c1)c1ccccc1 [Compound 58, N1-((2S,3R)-4-(3-tert-butylbenzylamino)-3-hydroxy-1-phenylbutan-2-yl)-5-(N-methylmethylsulfonamido)-N3-((R)-1-phenylethyl)isophthalamide] | – |
| < 300 nM | < 1000 nM | – | Cc1csc(CN(C)C(=O)c2cccc(C(=O)N[C@@H](Cc3ccccc3)[C@H](O)CNCc3cccc(C(F)F)c3)c2)n1 [Compound 143, N1-((2S,3R)-4-(3-(difluoromethyl)benzylamino)-3-hydroxy-1-phenylbutan-2-yl)-N3-methyl-N3-((4-methylthiazol-2-yl)methyl)isophthalamide] | – |
| < 300 nM | < 1000 nM | – | Cc1csc(CN(C(=O)c2cc(C(=O)N[C@@H](Cc3ccccc3)[C@H](O)CNCc3cncc(C(C)C)c3)cc(-c3ncco3)c2)C2CC2)n1 [Compound 186, N1-cyclopropyl-N3-((2S,3R)-3-hydroxy-4-((5-isopropylpyridin-3-yl)methylamino)-1-phenylbutan-2-yl)-N1-((4-methylthiazol-2-yl)methyl)-5-(oxazol-2-yl)isophthalamide] | – |
| > 501 nM | 1000 to 5000 nM | – | CNC(=O)c1cc(C(=O)N[C@@H](Cc2ccccc2)[C@H](O)CNCc2cccc(OC)c2)cc(C(=O)N[C@H](C)c2ccccc2)c1 [Compound 94, N1-((2S,3R)-3-hydroxy-4-(3-methoxybenzylamino)-1-phenylbutan-2-yl)-N3-methyl-N5-((R)-1-phenylethyl)benzene-1,3,5-tricarboxamide] | – |
| – | < 1000 nM | < 300 nM | CNS(=O)(=O)c1cc(CNC[C@@H](O)[C@H](Cc2ccccc2)NC(=O)c2cccc(C(=O)N(C)Cc3nc(C)cs3)c2)cc(C(C)C)c1 [Compound 251, N1-((2S,3R)-3-hydroxy-4-(3-isopropyl-5-(N-methylsulfamoyl)benzylamino)-1-phenylbutan-2-yl)-N3-methyl-N3-((4-methylthiazol-2-yl)methyl)isophthalamide] | – |
| – | < 1000 nM | < 300 nM | Cc1csc(CN(C)C(=O)c2cc(C(=O)N[C@@H](Cc3ccccc3)[C@H](O)CNCc3cncc(C(C)(C)F)c3)cc(-c3ccoc3)c2)n1 [Compound 270, N1-((2S,3R)-4-((5-(2-fluoropropan-2-yl)pyridin-3-yl)methylamino)-3-hydroxy-1-phenylbutan-2-yl)-5-(furan-3-yl)-N3-methyl-N3-((4-methylthiazol-2-yl)methyl)isophthalamide] | – |
| < 300 nM | < 1000 nM | – | Cc1csc(CN(C)C(=O)c2cccc(C(=O)N[C@@H](Cc3ccccc3)[C@H](O)CNCc3cc(C(C)C)nc(N)n3)c2)n1 [Compound 155, N1-((2S,3R)-4-((2-amino-6-isopropylpyrimidin-4-yl)methylamino)-3-hydroxy-1-phenylbutan-2-yl)-N3-methyl-N3-((4-methylthiazol-2-yl)methyl)isophthalamide] | – |
| – | < 1000 nM | < 300 nM | CC(=O)c1cc(C(=O)N[C@@H](Cc2ccccc2)[C@H](O)CNCc2cccc(C(F)(F)F)c2)cc(C(=O)N(C)Cc2nc(C)cs2)c1 [Compound 244, 5-acetyl-N1-((2S,3R)-3-hydroxy-1-phenyl-4-(3-(trifluoromethyl)benzylamino)butan-2-yl)-N3-methyl-N3-((4-methylthiazol-2-yl)methyl)isophthalamide] | – |
| < 300 nM | < 1000 nM | – | COc1cccc(CNC[C@@H](O)[C@H](Cc2ccccc2)NC(=O)c2cc(C(=O)N(C)Cc3nc(C)cs3)cc(C(C)(C)C)c2)c1 [Compound 2, 5-tert-butyl-N1-((2S,3R)-3-hydroxy-4-(3-methoxybenzylamino)-1-phenylbutan-2-yl)-N3-methyl-N3-((4-methylthiazol-2-yl)methyl)isophthalamide] | – |
| – | < 1000 nM | < 300 nM | Cc1csc(CN(C)C(=O)c2cc(C(=O)N[C@@H](Cc3ccccc3)[C@H](O)CNCc3cccc(C(F)(F)F)c3)cc(N(C)C)c2)n1 [Compound 254, 5-(dimethylamino)-N1-((2S,3R)-3-hydroxy-1-phenyl-4-(3-(trifluoromethyl)benzylamino)butan-2-yl)-N3-methyl-N3-((4-methylthiazol-2-yl)methyl)isophthalamide] | – |
| < 300 nM | < 1000 nM | – | Cc1cc(C(=O)N[C@@H](Cc2ccccc2)[C@H](O)CNCc2ccnc(C(C)C)c2)cc(C(=O)N(C)Cc2nc(C)cs2)c1 [Compound 60, N1-((2S,3R)-3-hydroxy-4-((2-isopropylpyridin-4-yl)methylamino)-1-phenylbutan-2-yl)-N3,5-dimethyl-N3-((4-methylthiazol-2-yl)methyl)isophthalamide] | – |
| < 300 nM | < 1000 nM | – | CNc1nc(CNC[C@@H](O)[C@H](Cc2ccccc2)NC(=O)c2cccc(C(=O)N(C)Cc3nc(C)cs3)c2)cc(C(C)C)n1 [Compound 161, N1-((2S,3R)-3-hydroxy-4-((6-isopropyl-2-(methylamino)pyrimidin-4-yl)methylamino)-1-phenylbutan-2-yl)-N3-methyl-N3-((4-methylthiazol-2-yl)methyl)isophthalamide] | – |

Source: patent US20100286145A1, “ISOPHTHALAMIDE DERIVATIVES INHIBITING BETA-SECRETASE ACTIVITY” (CoMentis, Inc., priority 2007, published 2010)
